Converted amounts (≈) assume the structure as drawn.
Experiments:
Experiment in all cases: in vitro antibacterial evaluation, MIC by broth dilution
Format in all cases: cell-based
Staphylococcus sp. = conditions: broth dilution, 18 hours at 35° C.; for MIC Staphylococcus aureus (GC 1131): strain GC 1131
How it was run: (§1)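 MIC = lowest antibiotic concentration preventing visible growth; inoculum 5×10^5 CFU/mL; drug range 64-0.06 μg/mL; Muller-Hinton II […]; NCCLS M7-A2 guidance.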

Enterococcus sp. = conditions: broth dilution, 18 hours at 35° C.
How it was run: as §1

Escherichia coli = system: Escherichia coli
How it was run: as §1

Streptococcus sp. = conditions: broth dilution, 18 hours at 35° C.
How it was run: as §1

## CC(c1ccccc1)C1NC(=O)CNC(=O)C(CO)NC(=O)C(C(O)C2CNC(=N)N2C2OC(CO)C(O)C(O)C2O)NC(=O)C(C(O)C2CNC(=N)N2)NC(=O)C(Cc2ccc(OC3OC(CO)C(OC4OC5COC(c6ccc7c(c6)OCCO7)OC5C(O)C4O)C(O)C3O)cc2)NC1=O (stereo not drawn) [Example 149]
Staphylococcus sp.; inoculum 5×10^5 CFU/mL
  MIC Staphylococcus aureus (GC 1131): 2 µg/mL (≈ 1.39 µM)
Staphylococcus sp.; strain ATCC 29213
  MIC Staphylococcus aureus (ATCC 29213): 2 µg/mL (≈ 1.39 µM)
Staphylococcus sp.
  MIC Staphylococcus aureus (GC 1131): 2 µg/mL (≈ 1.39 µM)
Staphylococcus sp.; strain GC 3051
  MIC Staphylococcus aureus (GC 3051): 2 µg/mL (≈ 1.39 µM)
Staphylococcus sp.; strain GC 3053
  MIC Staphylococcus aureus (GC 3053): 4 µg/mL (≈ 2.78 µM)
Staphylococcus sp.; strain GC 4541
  MIC Staphylococcus aureus (GC 4541): 2 µg/mL (≈ 1.39 µM)
Staphylococcus sp.; strain GC 4542
  MIC Staphylococcus aureus (GC 4542): 2 µg/mL (≈ 1.39 µM)
Staphylococcus sp.; strain GC 4543
  MIC Staphylococcus aureus-SMITH (GC 4543): 2 µg/mL (≈ 1.39 µM)
Staphylococcus sp.; strain GC 4544
  MIC Staphylococcus aureus (GC 4544): 2 µg/mL (≈ 1.39 µM)
Staphylococcus sp.; strain GC 4545
  MIC Staphylococcus aureus (GC 4545): 2 µg/mL (≈ 1.39 µM)
Staphylococcus sp.; strain GC 4546
  MIC Staphylococcus haemolyticus (GC 4546): 1 µg/mL (≈ 0.694 µM)
Staphylococcus sp.; strain GC 4547
  MIC Coagulase Negative Staphylococcus (GC 4547): 1 µg/mL (≈ 0.694 µM)
Staphylococcus sp.; strain GC 4548
  MIC Coagulase Negative Staphylococcus (GC 4548): 1 µg/mL (≈ 0.694 µM)
Staphylococcus sp.; strain GC 4549
  MIC Coagulase Negative Staphylococcus (GC 4549): 1 µg/mL (≈ 0.694 µM)
Staphylococcus sp.; strain GC 4551
  MIC Coagulase Negative Staphylococcus (GC 4551): 1 µg/mL (≈ 0.694 µM)
Staphylococcus sp.; strain GC 6257
  MIC Coagulase Negative Staphylococcus (GC 6257): 1 µg/mL (≈ 0.694 µM)
Staphylococcus sp.; strain SMITH GC 4543
  MIC Staphylococcus aureus-SMITH (GC 4543): 2 µg/mL (≈ 1.39 µM)
Enterococcus sp.; Enterococcus avium (GC 4558)
  MIC Enterococcus avium (GC 4558): 8 µg/mL (≈ 5.55 µM)
Enterococcus sp.; Enterococcus faecalis (ATCC 29212)
  MIC Enterococcus faecalis (ATCC 29212): 8 µg/mL (≈ 5.55 µM)
Enterococcus sp.; Enterococcus faecalis (GC 2242)
  MIC Enterococcus faecalis (GC 2242): 8 µg/mL (≈ 5.55 µM)
Enterococcus sp.; Enterococcus faecalis (GC 2691)
  MIC Enterococcus faecalis (GC 2691): 8 µg/mL (≈ 5.55 µM)
Enterococcus sp.; Enterococcus faecalis (GC 3059)
  MIC Enterococcus faecalis (GC 3059): 8 µg/mL (≈ 5.55 µM)
Enterococcus sp.; Enterococcus faecalis (GC 4552)
  MIC Enterococcus faecalis (GC 4552): 8 µg/mL (≈ 5.55 µM)
Enterococcus sp.; Enterococcus faecalis (GC 4553)
  MIC Enterococcus faecalis (GC 4553): 8 µg/mL (≈ 5.55 µM)
Enterococcus sp.; Enterococcus faecalis (GC 4554)
  MIC Enterococcus faecalis (GC 4554): 8 µg/mL (≈ 5.55 µM)
Enterococcus sp.; Enterococcus faecalis (GC 6189)
  MIC Enterococcus faecalis (GC 6189): 8 µg/mL (≈ 5.55 µM)
Enterococcus sp.; Enterococcus faecium (GC 2243)
  MIC Enterococcus faecium (GC 2243): 8 µg/mL (≈ 5.55 µM)
Enterococcus sp.; Enterococcus faecium (GC 4556)
  MIC Enterococcus faecium (GC 4556): 8 µg/mL (≈ 5.55 µM)
Enterococcus sp.; Enterococcus faecium (GC 4557)
  MIC Enterococcus faecium (GC 4557): 2 µg/mL (≈ 1.39 µM)
Enterococcus sp.; strain ATCC 29212
  MIC Enterococcus faecalis (ATCC 29212): 8 µg/mL (≈ 5.55 µM)
Enterococcus sp.; strain GC 2242
  MIC Enterococcus faecalis (GC 2242): 8 µg/mL (≈ 5.55 µM)
Enterococcus sp.; strain GC 2243
  MIC Enterococcus faecium (GC 2243): 8 µg/mL (≈ 5.55 µM)
Enterococcus sp.; strain GC 2691
  MIC Enterococcus faecalis (GC 2691): 8 µg/mL (≈ 5.55 µM)
Enterococcus sp.; strain GC 3059
  MIC Enterococcus faecalis (GC 3059): 8 µg/mL (≈ 5.55 µM)
Enterococcus sp.; strain GC 4552
  MIC Enterococcus faecalis (GC 4552): 8 µg/mL (≈ 5.55 µM)
Enterococcus sp.; strain GC 4553
  MIC Enterococcus faecalis (GC 4553): 8 µg/mL (≈ 5.55 µM)
Enterococcus sp.; strain GC 4554
  MIC Enterococcus faecalis (GC 4554): 8 µg/mL (≈ 5.55 µM)
Enterococcus sp.; strain GC 4556
  MIC Enterococcus faecium (GC 4556): 8 µg/mL (≈ 5.55 µM)
Enterococcus sp.; strain GC 4557
  MIC Enterococcus faecium (GC 4557): 2 µg/mL (≈ 1.39 µM)
Enterococcus sp.; strain GC 4558
  MIC Enterococcus avium (GC 4558): 8 µg/mL (≈ 5.55 µM)
Enterococcus sp.; strain GC 6189
  MIC Enterococcus faecalis (GC 6189): 8 µg/mL (≈ 5.55 µM)
Escherichia coli; strain ATCC 25922, 18 hours at 35° C.
  MIC Escherichia coli (ATCC 25922): >64 µg/mL
Escherichia coli; strain GC 4559, 18 hours at 35° C.
  MIC Escherichia coli (GC 4559): 64 µg/mL (≈ 44.4 µM)
Escherichia coli; strain GC 4560, 18 hours at 35° C.
  MIC Escherichia coli (GC 4560): <0.5 µg/mL
Streptococcus sp.; Streptococcus agalactiae (GC 4564)
  MIC Streptococcus agalactiae (GC 4564): 1 µg/mL (≈ 0.694 µM)
Streptococcus sp.; Streptococcus pneumoniae (ATCC 6301)
  MIC Streptococcus pneumoniae (ATCC 6301): <0.5 µg/mL
Streptococcus sp.; Streptococcus pneumoniae (GC 1894)
  MIC Streptococcus pneumoniae (GC 1894): <0.5 µg/mL
Streptococcus sp.; Streptococcus pneumoniae (GC 4565)
  MIC Streptococcus pneumoniae (GC 4565): 2 µg/mL (≈ 1.39 µM)
Streptococcus sp.; Streptococcus pyogenes (GC 4563)
  MIC Streptococcus pyogenes (GC 4563): <0.5 µg/mL
Streptococcus sp.; strain ATCC 6301
  MIC Streptococcus pneumoniae (ATCC 6301): <0.5 µg/mL
Streptococcus sp.; strain GC 1894
  MIC Streptococcus pneumoniae (GC 1894): <0.5 µg/mL
Streptococcus sp.; strain GC 4563
  MIC Streptococcus pyogenes (GC 4563): <0.5 µg/mL
Streptococcus sp.; strain GC 4564
  MIC Streptococcus agalactiae (GC 4564): 1 µg/mL (≈ 0.694 µM)
Streptococcus sp.; strain GC 4565
  MIC Streptococcus pneumoniae (GC 4565): 2 µg/mL (≈ 1.39 µM)
